Experimental data taken from PubChem BioAssay AID1963845 (Molecular Pharmacology Branch, DTP, NCI, 2024).
Values joined by “and” are separate entries in the source; they are usually repeats but may differ in a detail not shown here. Equal entries are not always repeated.

System: 429239-143-T-J1-PDC complex spheroid viability
Assay: Anticancer human tumor 429239-143-T-J1-PDC patient-derived small cell lung carcinoma cell line growth inhibition [POLQ]
Details: for viability, T/C: stronger effect = lower value
Method: Multicellular complex tumor spheroid response to Polymerase (POL) inhibitors (novobiocin, ART-558, RP6685) in combination with a variety of drugs and investigational agents in selected tumor cell lines
The POL inhibitors (novobiocin, ART-558, and RP6685) were evaluated both individually and in combination with standard of care and investigational anticancer small molecules within a complex spheroid model of solid tumors. . Complex spheroids include a stromal component modeled by human endothelial cells (HUVEC) and fibroblasts modeled by human mesenchymal stem cells (MSCs). The concentration ranges selected for each drug and investigational agent were based upon clinically achievable concentrations if the clinical Cmax of the agent was known.
Compounds. The drugs and investigational agents: novobiocin (NSC847541), ART-558 (NSC835418), RP-6685 (NSC848927), peposertib (NSC802822), ceralasertib (NSC780249), elimusertib (NSC800525), camonsertib (NSC841442), AZD-1390 (NSC803789), olaparib (NSC753686), talazoparib (NSC767125), rucaparib (NSC756644), sotorasib (NSC818433), MRTX-1133 (NSC836407), SN-38 (NSC673596), topotecan (NSC609699), epotoside (NSC141540), doxorubicin (NSC123127), gemcitabine (NSC613327), 5-fluorouracil (NSC19893), paclitaxel (NSC125973), vemurafenib (NSC761431), MSA-2 (NSC828583), SN-011 (NSC837082), adavosertib (NSC754352), prexasertib (NSC758257), carboplatin (NSC241240) and oxaliplatin (NSC266046), were obtained from the National Cancer Institute (NCI) Developmental Therapeutics Program Chemical Repository (21). The FDA-approved anticancer drug set is available from the Developmental Therapeutics Program at https://dtp.cancer.gov/organization/dscb/obtaining/. […] The stock solutions were prepared in dimethyl sulfoxide (DMSO, Sigma-Aldrich, St. Louis, MO, cat. D2650), except for the platinum compounds which were prepared in saline (Quality Biological, Gaithersburg, MD, cat. 114-055-101), at 800-fold the tested concentration and stored at -70 degrees C prior to their use. All drugs and investigational agents were tested over a range starting from a high concentration at or near the clinical Cmax and decreasing in half-log increments. If the clinical Cmax for an agent had not been determined, the highest concentration tested was 10 microM, except for SN-38, which was tested at a high concentration of 1 microM.
Cell Culture. All cells were maintained in an incubator at 37 degrees C and 5% CO2 with 95% humidity. The PDC lines were cultured according to standard operating procedures established by the NCI PDMR (https://pdmr.cancer.gov). Table 3 of the manuscript, lists the cell lines along with the number of the three cell types plated to form the mct-spheroids and media for tumor cell growth. After thawing, all PDC lines, except 997537-175-T-J1-PDC and 415267-285-R-J2-PDC, were cultured in Matrigel-coated flasks prepared with a working solution of 1X Ham's F-12 nutrient mix, without supplementation (Thermo Fisher Scientific, cat. 11765054), 100 U/mL penicillin-streptomycin (Thermo Fisher Scientific, cat. 15140122), and 2.5% Matrigel (Corning Inc., Corning, NY, cat. 354248) for the first three passages. The two PDC lines 997537-175-T-J1-PDC and 415267-285-R-J2-PDC were cultured on uncoated flasks. The 857933-349-R-J2-PDC line was cultured in 6C/Colon 1B media containing advanced DMEM/F-12 (Thermo Fisher Scientific, cat. 12634028), 10 mM HEPES (Thermo Fisher Scientific, cat. 15630080), 1X GlutaMAX supplement (Thermo Fisher Scientific, cat. 35050061), 0.1 mg/mL primocin (InvivoGen, San Diego, CA, cat. ant-pm-2), 10% defined fetal bovine serum, heat inactivated (HyClone Laboratories Inc., Logan, UT, cat. SH30070.03HI), 50% L-WRN conditioned media (ATCC, cat. CRL-3276), 1.25 mM N-Acetyl-L-cysteine (Sigma-Aldrich, cat. A9165), 10 mM nicotinamide (Sigma-Aldrich, cat. N0636), 1X B-27 supplement (Thermo Fisher Scientific, cat. 17504044), 1X N-2 supplement (Thermo Fisher Scientific, cat. […]
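Also: luminescence signal used as surrogate measure of viable cells; spheroids exposed to compounds for seven days before readout.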
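For viability, T/C in this document: 100% = DMSO vehicle control viability as luminescence relative to vehicle.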

With `C#Cc1c(F)ccc2cc(O)cc(-c3ncc4c(N5CC6CCC(C5)N6)nc(OCC56CCCN5CC(F)C6)nc4c3F)c12` (stereo not drawn) the viability, T/C (compound 0.0316 µM) was 92.4% and 94.3% and 101%, the viability, T/C (compound 0.1 µM) was 91.3% and 103% and 102% and the viability, T/C (compound 0.316 µM) was 114% and 102% and 96%. The viability, T/C (compound 1 µM) was 99% and 112% and 102%, the viability, T/C (compound 3.16 µM) was 102% and 97.4% and 98.6% and the viability, T/C (compound 10 µM) was 84.1% and 91.3% and 103%. For the same molecule, the IC50 (curve of compound) was greater than 10 µM.

With `O=C(Nc1ccc(O)c(NS(=O)(=O)c2ccc(F)cc2)c1)c1ccc(-c2ccccc2)cc1` the viability, T/C (compound 0.0316 µM) was 100% and 92.5% and 95.2%, the viability, T/C (compound 0.1 µM) was 106% and 123% and 96.5% and the viability, T/C (compound 0.316 µM) was 105% and 106% and 107%. For the same molecule, the viability, T/C (compound 1 µM) was 103% and 107% and 99.5%, the viability, T/C (compound 3.16 µM) was 113% and 122% and 114% and the viability, T/C (compound 10 µM) was 103% and 119% and 63.5%. For the same molecule, the IC50 (curve of compound) was greater than 10 µM.

With `COc1cccc(OCCCN)c1-c1cc(Nc2cnc(C#N)cn2)n[nH]1` the viability, T/C (compound 0.00316 µM) was 92% and 99.1% and 90.2%, the viability, T/C (compound 0.01 µM) was 79.7% and 103% and 100% and the viability, T/C (compound 0.0316 µM) was 82.9% and 83.9% and 89.2%. For the same molecule, the viability, T/C (compound 0.1 µM) was 39.7% and 73.7% and 77.4%, the viability, T/C (compound 0.316 µM) was 31% and 56.7% and 51.6% and the viability, T/C (compound 1 µM) was 23% and 27% and 41.3%. The IC50 (curve of compound) was 0.0762 µM and 0.39 µM and 0.384 µM.

In the case of `Cn1ncnc1[C@H]1c2n[nH]c(=O)c3cc(F)cc(c23)N[C@@H]1c1ccc(F)cc1`, the viability, T/C (compound 0.000316 µM) is reported as 101% and 105% and 93.1%, the viability, T/C (compound 0.001 µM) is reported as 96.8% and 94.6% and 88.7% and the viability, T/C (compound 0.00316 µM) is reported as 78% and 94.1% and 76.6%. The viability, T/C (compound 0.01 µM) was 71% and 86% and 60.1%, the viability, T/C (compound 0.0316 µM) was 40.5% and 78.3% and 47.5% and the viability, T/C (compound 0.1 µM) was 30.4% and 63.1% and 29%. The IC50 (curve of compound) was 0.0234 µM and > 0.1 µM.

`CC1COCCN1c1cc(C2(S(C)(=N)=O)CC2)nc(-c2ccnc3[nH]ccc23)n1` (stereo not drawn) + Nc1ccc(C#CCN(C(=O)Cc2ncc(C(F)(F)F)cc2C(F)(F)F)c2ccc(F)cc2)nn1 gave an IC50 (curve of first compound, second compound 0.0316 µM) greater than 10 µM, an IC50 (curve of first compound, second compound 0.1 µM) of 9.98 µM and an IC50 (curve of first compound, second compound 0.316 µM) of 9.92 µM. For the same molecule, the IC50 (curve of first compound, second compound 1 µM) was greater than 10 µM, the IC50 (curve of first compound, second compound 3.16 µM) was 8.71 µM and the IC50 (curve of first compound, second compound 10 µM) was 7.19 µM. It also gave a viability, T/C (second compound 0.0316 µM, first compound 0.0316 µM) of 90.4%, a viability, T/C (second compound 0.0316 µM, first compound 0.1 µM) of 105% and a viability, T/C (second compound 0.0316 µM, first compound 0.316 µM) of 100%. For the same molecule, the viability, T/C (second compound 0.0316 µM, first compound 1 µM) was 91%, the viability, T/C (second compound 0.0316 µM, first compound 3.16 µM) was 80.4% and the viability, T/C (second compound 0.0316 µM, first compound 10 µM) was 53.3%. For the same molecule, the viability, T/C (second compound 0.1 µM, first compound 0.0316 µM) was 109%, the viability, T/C (second compound 0.1 µM, first compound 0.1 µM) was 104% and the viability, T/C (second compound 0.1 µM, first compound 0.316 µM) was 94.6%. For the same molecule, the viability, T/C (second compound 0.1 µM, first compound 1 µM) was 95.2%, the viability, T/C (second compound 0.1 µM, first compound 3.16 µM) was 84.8% and the viability, T/C (second compound 0.1 µM, first compound 10 µM) was 49%. It also gave a viability, T/C (second compound 0.316 µM, first compound 0.0316 µM) of 99.9%, a viability, T/C (second compound 0.316 µM, first compound 0.1 µM) of 97.7% and a viability, T/C (second compound 0.316 µM, first compound 0.316 µM) of 97.2%. It also gave a viability, T/C (second compound 0.316 µM, first compound 1 µM) of 92.5%, a viability, T/C (second compound 0.316 µM, first compound 3.16 µM) of 77.2% and a viability, T/C (second compound 0.316 µM, first compound 10 µM) of 49.6%. The viability, T/C (second compound 1 µM, first compound 0.0316 µM) was 113%, the viability, T/C (second compound 1 µM, first compound 0.1 µM) was 91.2% and the viability, T/C (second compound 1 µM, first compound 0.316 µM) was 90.2%. The viability, T/C (second compound 1 µM, first compound 1 µM) was 90.2%, the viability, T/C (second compound 1 µM, first compound 3.16 µM) was 79.2% and the viability, T/C (second compound 1 µM, first compound 10 µM) was 51.6%. The viability, T/C (second compound 3.16 µM, first compound 0.0316 µM) was 99.1%, the viability, T/C (second compound 3.16 µM, first compound 0.1 µM) was 86.8% and the viability, T/C (second compound 3.16 µM, first compound 0.316 µM) was 90.7%. For the same molecule, the viability, T/C (second compound 3.16 µM, first compound 1 µM) was 95.2%, the viability, T/C (second compound 3.16 µM, first compound 3.16 µM) was 79.6% and the viability, T/C (second compound 3.16 µM, first compound 10 µM) was 46%. For the same molecule, the viability, T/C (second compound 10 µM, first compound 0.0316 µM) was 95.5%, the viability, T/C (second compound 10 µM, first compound 0.1 µM) was 91.4% and the viability, T/C (second compound 10 µM, first compound 0.316 µM) was 101%. It also gave a viability, T/C (second compound 10 µM, first compound 1 µM) of 83.9%, a viability, T/C (second compound 10 µM, first compound 3.16 µM) of 79.7% and a viability, T/C (second compound 10 µM, first compound 10 µM) of 38.5%.

`COc1ccc([C@@H](O)c2cc(-c3ncnc4cc(N5CCOCC5)ccc34)c(F)cc2Cl)nn1` was tested, and the viability, T/C (compound 0.0316 µM) was 94.3% and 105% and 106%, the viability, T/C (compound 0.1 µM) was 96% and 95.6% and 99.2% and the viability, T/C (compound 0.316 µM) was 93.8% and 92.8% and 87.8%. For the same molecule, the viability, T/C (compound 1 µM) was 87.6% and 96.2% and 92.5%, the viability, T/C (compound 3.16 µM) was 55.4% and 93.5% and 53.1% and the IC50 (curve of compound) was 3.61 µM and 9.97 µM and 3.52 µM.

`Nc1ccn(C2OC(CO)C(O)C2(F)F)c(=O)n1` (stereo not drawn) was tested, and the viability, T/C (compound 0.0316 µM) was 20% and 68.1% and 17.7%, the viability, T/C (compound 0.1 µM) was 18.2% and 6.89% and 16% and the viability, T/C (compound 0.316 µM) was 17.5% and 6.81% and 18.4%. The viability, T/C (compound 1 µM) was 19.9% and 6.79% and 18.6%, the viability, T/C (compound 3.16 µM) was 16.3% and 6.33% and 14.9% and the viability, T/C (compound 10 µM) was 15.8% and 5.46% and 15%. For the same molecule, the IC50 (curve of compound) was < 0.0316 µM and 0.0444 µM.
